Data taken from article PMC7281206, “Cysteine Cathepsins Inhibition Affects Their Expression and Human Renal Cancer Cell Phenotype” (Cancers, 2020).
*: point of attachment. CH2F = FC*

Legend:
[1] = test system: A498 cells (proteolytic activity); test: Cell proteolytic activity towards Ac-PLVQ-AMC, A498; assay type: cell-based, human; conditions: 30 min peptide, then 10 min Ac-PLVQ-AMC; fluorescence microscopy and fluorimetric analysis
Method: To evaluate the inhibitory properties of the peptides directly on the human renal cancer cells, we firstly assessed the impact of Ac-PLVE-FMK and Ac-VLPE-FMK on the cell viability of 769-P and A498 cells to determine the working concentrations for further experiments. […] Further experiments were performed using a concentration of 20 μM. To understand if the peptides could affect the activity of caspase proteases, we tested their effect on cell viability in combination with the chemotherapeutic paclitaxel (PXT) in both the cell lines. […] Next, we evaluated the effect of the peptides on renal cancer cell proteolytic activity against the fluorogenic probe Ac-PLVQ-AMC. In this case, 769-p and A498 cells were treated for 30 min with Ac-PLVE-FMK or Ac-VLPE-FMK and were then exposed for 10 min to the substrate Ac-PLVQ-AMC prior fluorescence microscopy analysis (Figure 3c,d).
Figure 3 The effect of the peptide inhibitors on human 769-P and A498 renal cancer cell proliferation and proteolytic activity. […] Cell proliferation was measured after 24, 48, and 72 h via MTT (3-(4,5-dimethylthiazol-2-yl)-2,5-diphenyltetrazolium bromide) assay. […] (c) Fluorescence microscopy evaluation and quantification of the cell proteolytic activity in 769-P and (d) A498 cells towards the fluorogenic substrate Ac-PLVQ-AMC in the absence or presence of Ac-PLVE-FMK and Ac-VLPE-FMK. […]

[2] = test system: A498 cells (endolysosomal compartment); test: Neutral red assay (endolysosomal integrity), A498; assay type: cell-based, human; conditions: 2.5–250 μM; 48 h
Method: (§1) Figure S6. The effect of the peptide inhibitors on human 769‐P and A498 renal cancer cell on
(§2) lysosomes integrity. (a) 769‐P and (b) A498 cells were treated with increasing doses of Ac‐PLVE‐FMK
(§3) (red bars) and Ac‐VLPE‐FMK (blue bars) (2.5–250 μM). NR uptake was measured after 24, 48, and 72
(§4) h via MTT assay. (c) LysoTracker red evaluation in 769‐P and (d) A498 cells after 24, 48, and 72 h with
(§5) the inhibitors (20 μM). Data represent the mean (± S.D.) of at least three independent experiments,
(§6) each performed in triplicate.

Dispersibility in water = assay type: physicochemical
[3] = test system: 769-P cells (endolysosomal compartment); test: Neutral red assay (endolysosomal integrity), 769-P; assay type: cell-based, human; conditions: 2.5–250 μM; 48 h
Method: as §1, §2, §3, §4, §5, §6

E-cadherin in A498 cells = test: E-cadherin protein expression (western blot), A498; assay type: cell-based, human; conditions: first 48 h
Method: These properties could be the result of the modulation of the effectors controlling EMT, as previously shown in other tumor models. To test this hypothesis, the cells were treated with the inhibitors for 24, 48, and 72 h by changing the media every day, and they were tested for E-cadherin and SNAIL1 expression (Figure 6; detail information of western blots can be seen in Supplementary Figure S7). Figure 6 Effects of the peptides on E-cadherin and SNAIL1 protein expression: (a,b) protein expression of E-cadherin and SNAIL1 in 769-P and (c,d) A498 cells after 24, 48, and 72 h of treatment with the peptides. Data are represented as mean ± SD of at least three replicates. Significance was calculated through one-way ANOVA, followed by Dunnet’s test. Cells were seeded in RPMI containing 10% FBS and cultured for 24 h. Next, 30 µM of inhibitors were added to the culture medium and incubated for 24, 48, and 72 h. Control cells were treated with 0.01% DMSO. At all time points the samples were lysed in 50 mM Tri-HCl (pH 8.0), 100 mM NaCl, 0.5% NP-40, 1% Triton X-100, 1× protease inhibitor cocktail (ThermoFisher, Waltham, MA, USA). The 50 µg of protein lysates were separated by electrophoresis on a 12% SDS-PAGE gel and transferred to the PFDF membranes. […] After an additional wash (three times with PBS), reactive bands were detected by chemiluminescence (Bio-Rad, Irvine, CA, USA). […]

Row | Substance | Inhibition of probe degradation (cell proteolytic activity) [1] | Neutral red uptake [2] | Dispersibility in water (Dispersibility in water) | Neutral red uptake [3] | E-cadherin protein expression (E-cadherin in A498 cells)
1 | Ac-PLVE-CH2F [Ac-PLVE-FMK] | significantly inhibited the probe degradation | decreasing | easily dispersed in water | slightly increasing | increased the protein expression of E-cadherin in the first 48 h in both the cell lines
2 | Ac-VLPE-CH2F [Ac-VLPE-FMK] | significantly inhibited the probe degradation | decreasing | easily dispersed in water | slightly increasing | increased the protein expression of E-cadherin in the first 48 h in both the cell lines
